Source: patent US12492199B2, “Pyridopyrimidines as histamine H4-receptor inhibitors” (FAES FARMA, S.A., priority 2018, dated 2025)

Target: human H4 receptor (Homo sapiens (Human), UniProt Q9H3N8)
Test: H4 Binding assay ([3H]histamine competition, membranes from CHO-K1 cells transfected with human H4 receptor)
Settings: affinity for human histamine H4 receptor, class symbols; read-out: ACTIVITY CLASS hH4R (Ki)
Protocol: Affinity for histamine H4-receptor was determined by H4 Binding assay:
• Membranes from CHO-K1 cells transfected with human H4 receptor and microplates of 96-well format were used. • For competition studies cell membranes were homogenated in Tris-HCl 50 mM, EDTA 5 mM, pH 7.4 and added to the microplate at the concentration of approximately 15 μg/well. […] Non specific binding was defined using 10 μM unlabeled histamine and the total incubation volume was 275 μl per well. • Incubations were performed under gentle agitation at 25° C. for 60 min and concluding with a rapid vacuum filtration using pre-soaked filters (0.5% polyethylenimine). After ten rapid washes with cold wash buffer (50 mM Tris-HCl buffer) the filter plates were dried at room temperature for 30 min. • Finally, scintillation liquid (Microscint 20) was added to the whole microplate in order to measure the radioactivity reattained on the filters using a specific scintillation counter (Top Count—NXT). […] H1 Binding Assay Materials

human H4 receptor, sequence (Q9H3N8 whole entry): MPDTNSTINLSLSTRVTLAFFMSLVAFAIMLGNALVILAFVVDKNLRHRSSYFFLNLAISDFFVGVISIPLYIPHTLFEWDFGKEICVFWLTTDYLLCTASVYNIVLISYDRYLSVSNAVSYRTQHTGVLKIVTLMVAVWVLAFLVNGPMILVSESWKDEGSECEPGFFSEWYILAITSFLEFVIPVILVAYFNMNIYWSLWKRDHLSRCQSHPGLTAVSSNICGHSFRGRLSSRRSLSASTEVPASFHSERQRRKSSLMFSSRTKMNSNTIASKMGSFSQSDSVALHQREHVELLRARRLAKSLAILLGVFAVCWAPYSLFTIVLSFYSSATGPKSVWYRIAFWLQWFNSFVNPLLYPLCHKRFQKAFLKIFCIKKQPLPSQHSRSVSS

`Cc1cc2c(NCc3cccs3)nc(N3CCN(C)CC3)nc2cn1` [Example 46, 6-methyl-2-(4-methylpiperazin-1-yl)-N-(thiophen-2-ylmethyl)pyrido[3,4-d]pyrimidin-4-amine] and `CC(C)c1cc2c(NCc3cccs3)nc(N3CCN(C)CC3)nc2cn1` [Example 52, 6-isopropyl-2-(4-methylpiperazin-1-yl)-N-(thiophen-2-ylmethyl)pyrido[3,4-d]pyrimidin-4-amine] cannot be ordered by Ki: under 1 µM for the first, under 0.1 µM for the second.

`CN1CCN(c2nc(NCCS(=O)(=O)N3CCOCC3)c3cc(Cl)ncc3n2)CC1` [Example 18, 6-chloro-2-(4-methylpiperazin-1-yl)-N-(2-(morpholinosulfonyl)ethyl)pyrido[3,4-d]pyrimidin-4-amine] and `O=S(=O)(CCNc1nc(N2CCNCC2)nc2cnc(Cl)cc12)N1CCOCC1` [Example 28, 6-chloro-N-(2-(morpholinosulfonyl)ethyl)-2-(piperazin-1-yl)pyrido[3,4-d]pyrimidin-4-amine] cannot be ordered by Ki: under 0.1 µM for the first, under 0.1 µM for the second.

`CN1CCN(c2nc(NCCc3cccs3)c3cc(Cl)ncc3n2)CC1` [Example 6, 6-chloro-2-(4-methylpiperazin-1-yl)-N-(2-(thiophen-2-yl)ethyl)pyrido[3,4-d]pyrimidin-4-amine] and `CCCc1cc2c(NCCc3cccs3)nc(N3CCN(C)CC3)nc2cn1` [Example 50, 2-(4-methylpiperazin-1-yl)-6-propyl-N-(2-(thiophen-2-yl)ethyl)pyrido[3,4-d]pyrimidin-4-amine] cannot be ordered by Ki: under 1 µM for the first, under 1 µM for the second.

`CN1CCN(c2nc(NCCS(=O)(=O)Nc3ccccc3N)c3cc(Cl)ncc3n2)CC1` [Example 75, N-(2-aminophenyl)-2-((6-chloro-2-(4-methylpiperazin-1-yl)pyrido[3,4-d]pyrimidin-4-yl)amino)ethane-1-sulfonamide] and `Cc1ccccc1NS(=O)(=O)CCNc1nc(N2CCN(C)CC2)nc2cnc(Cl)cc12` [Example 73, 2-((6-chloro-2-(4-methylpiperazin-1-yl)pyrido[3,4-d]pyrimidin-4-yl)amino)-N-(o-tolyl)ethane-1-sulfonamide] cannot be ordered by Ki: under 1 µM for the first, under 0.1 µM for the second.

`CNS(=O)(=O)CCNc1nc(N2CCN(C)CC2)nc2cnc(Cl)cc12` [Example 14, 2-((6-chloro-2-(4-methylpiperazin-1-yl)pyrido[34-d]pyrimidin-4-yl)amino)-N-methylethane-1-sulfonamide] and `CN1CCN(c2nc(NCCS(N)(=O)=O)c3cc(Cl)ncc3n2)CC1` [Example 71, 2-((6-chloro-2-(4-methylpiperazin-1-yl)pyrido[3,4-d]pyrimidin-4-yl)amino)ethane-1-sulfonamide] cannot be ordered by Ki: under 0.1 µM for the first, under 0.1 µM for the second.

`CCCCNc1nc(N2CCN(C)CC2)nc2cnc(Cl)cc12` [Example 22, N-butyl-6-chloro-2-(4-methylpiperazin-1-yl)pyrido[3,4-d]pyrimidin-4-amine] and `CNC(=O)CCNc1nc(N2CCN(C)CC2)nc2cnc(Cl)cc12` [Example 98, 3-((6-chloro-2-(4-methylpiperazin-1-yl)pyrido[3,4-d]pyrimidin-4-yl)amino)-N-methylpropanamide] cannot be ordered by Ki: under 1 µM for the first, under 1 µM for the second.

`COc1cccc(NS(=O)(=O)CCNc2nc(N3CCN(C)CC3)nc3cnc(Cl)cc23)c1` [Example 80, 2-((6-chloro-2-(4-methylpiperazin-1-yl)pyrido[3,4-d]pyrimidin-4-yl)amino)-N-(3-methoxyphenyl)ethane-1-sulfonamide] and `CSc1cccc(NS(=O)(=O)CCNc2nc(N3CCN(C)CC3)nc3cnc(Cl)cc23)c1` [Example 81, 2-((6-chloro-2-(4-methylpiperazin-1-yl)pyrido[3,4-d]pyrimidin-4-yl)amino)-N-(3-(methylthio)phenyl)ethane-1-sulfonamide] cannot be ordered by Ki: under 0.1 µM for the first, under 0.1 µM for the second.

`CC(C)c1cc2c(NCc3ccco3)nc(N3CCN(C)CC3)nc2cn1` [Example 51, N-(furan-2-ylmethyl)-6-isopropyl-2-(4-methylpiperazin-1-yl)pyrido[3,4-d]pyrimidin-4-amine] and `CN1CCN(c2nc(NCc3ncc[nH]3)c3cc(Cl)ncc3n2)CC1` [Example 8, N-((1H-imidazol-2-yl)methyl)-6-chloro-2-(4-methylpiperazin-1-yl)pyrido[3,4-d]pyrimidin-4-amine] cannot be ordered by Ki: under 1 µM for the first, under 1 µM for the second.

`CN1CCN(c2nc(NCCS(=O)(=O)Nc3cccc(C(F)(F)F)c3)c3cc(Cl)ncc3n2)CC1` [Example 78, 2-((6-chloro-2-(4-methylpiperazin-1-yl)pyrido[3,4-d]pyrimidin-4-yl)amino)-N-(3-(trifluoromethyl)phenyl)ethane-1-sulfonamide] and `CN1CCN(c2nc(NCCS(=O)(=O)Nc3ccc(C(F)(F)F)cc3)c3cc(Cl)ncc3n2)CC1` [Example 83, 2-((6-chloro-2-(4-methylpiperazin-1-yl)pyrido[3,4-d]pyrimidin-4-yl)amino)-N-(4-(trifluoromethyl)phenyl)ethane-1-sulfonamide] cannot be ordered by Ki: under 0.1 µM for the first, under 1 µM for the second.

`CN1CCN(c2nc(NCCS(=O)(=O)Nc3ccc(Cl)cc3)c3cc(Cl)ncc3n2)CC1` [Example 82, 2-((6-chloro-2-(4-methylpiperazin-1-yl)pyrido[3,4-d]pyrimidin-4-yl)amino)-N-(4-chlorophenyl)ethane-1-sulfonamide] and `Cc1ccc(NS(=O)(=O)CCNc2nc(N3CCN(C)CC3)nc3cnc(Cl)cc23)cc1` [Example 84, 2-((6-chloro-2-(4-methylpiperazin-1-yl)pyrido[3,4-d]pyrimidin-4-yl)amino)-N-(p-tolyl)ethane-1-sulfonamide] cannot be ordered by Ki: under 0.1 µM for the first, under 0.1 µM for the second.

`Cc1cc(NS(=O)(=O)CCNc2nc(N3CCN(C)CC3)nc3cnc(Cl)cc23)n(C)n1` [Example 90, 2-((6-chloro-2-(4-methylpiperazin-1-yl)pyrido[3,4-d]pyrimidin-4-yl)amino)-N-(1,3-dimethyl-1H-pyrazol-5-yl)ethane-1-sulfonamide] and `CN1CCN(c2nc(NCCS(=O)(=O)Nc3cccnc3)c3cc(Cl)ncc3n2)CC1` [Example 86, 2-((6-chloro-2-(4-methylpiperazin-1-yl)pyrido[3,4-d]pyrimidin-4-yl)amino)-N-(pyridin-3-yl)ethane-1-sulfonamide] cannot be ordered by Ki: under 1 µM for the first, under 0.1 µM for the second.

`CN1CCN(c2nc(NCCS(=O)(=O)NCc3ccccc3)c3cc(Cl)ncc3n2)CC1` [Example 15, N-benzyl-2-((6-chloro-2-(4-methylpiperazin-1-yl)pyrido[3,4-d]pyrimidin-4-yl)amino)ethane-1-sulfonamide] and `CN1CCN(c2nc(NCCS(=O)(=O)NCc3ccccn3)c3cc(Cl)ncc3n2)CC1` [Example 88, 2-((6-chloro-2-(4-methylpiperazin-1-yl)pyrido[3,4-d]pyrimidin-4-yl)amino)-N-(pyridin-2-ylmethyl)ethane-1-sulfonamide] cannot be ordered by Ki: under 0.1 µM for the first, under 0.1 µM for the second.

`CN1CCN(c2nc(NCCc3nccs3)c3cc(Cl)ncc3n2)CC1` [Example 70, 6-chloro-2-(4-methylpiperazin-1-yl)-N-(2-(thiazol-2-yl)ethyl)pyrido[3,4-d]pyrimidin-4-amine] and `O=S(=O)(CCNc1nc(N2CCN3CCCC3C2)nc2cnc(Cl)cc12)N1CCOCC1` (centres unmarked) [Example 38, 6-chloro-2-(hexahydropyrrolo[1,2-a]pyrazin-2(1H)-yl)-N-(2-(morpholinosulfonyl)ethyl)pyrido[3,4-d]pyrimidin-4-amine] cannot be ordered by Ki: under 1 µM for the first, under 0.1 µM for the second.
